# Source: paper PMC7594721, “Synthesis and biological activity of 2-cyanoacrylamide derivatives tethered to imidazopyridine as TAK1 inhibitors” (Journal of Enzyme Inhibition and Medicinal Chemistry, 2020)
# Assays:
# [1] = molecular target: T1, TAK1 (Homo sapiens, UniProt O43318); test: TAK1 LanthaScreen Eu Kinase Binding Assay (Invitrogen; Table 1 calls it TAK1 enzymatic assay); conditions: for IC50: read-out: IC50 against TAK1; for TAK1 potency, SAR result in words: Table 1 SAR discussion
# T1 construct: purchased Invitrogen (Thermo Fisher Scientific)
# T1 sequence (O43318 with tags, fused parts or gaps limits assumed): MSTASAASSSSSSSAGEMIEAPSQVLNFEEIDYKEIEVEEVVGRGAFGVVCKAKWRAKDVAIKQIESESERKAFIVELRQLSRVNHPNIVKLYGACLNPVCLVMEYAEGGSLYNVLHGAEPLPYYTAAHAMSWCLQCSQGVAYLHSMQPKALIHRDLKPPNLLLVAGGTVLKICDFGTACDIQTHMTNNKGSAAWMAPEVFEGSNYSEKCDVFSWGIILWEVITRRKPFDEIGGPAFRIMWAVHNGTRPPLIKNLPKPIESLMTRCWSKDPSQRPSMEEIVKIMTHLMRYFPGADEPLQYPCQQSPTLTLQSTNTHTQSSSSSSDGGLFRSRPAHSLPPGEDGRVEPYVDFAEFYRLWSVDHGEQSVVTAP
# Description: Kinase assays were performed by Invitrogen (now Thermo Fisher Scientific, Waltham, MA) or Reaction Biology Corp. (Malvern, PA). Inhibitory activity of compounds for TAK1 was evaluated using LanthaScreen® Eu Kinase Binding Assay (Invitrogen, Waltham, MA). The kinase profile of compound 13h was determined by the kinase HotSpot Profiling service of Reaction Biology Corporation. All assays were performed at Km for ATP.
# Table 1. TAK1 enzymatic assay with imidazopyridine derivatives. ^a In-vitro enzymatic assay data obtained from Invitrogen^TM.
# [2] = tested on: MDA-MB-231 cells; test: Caspase-3/7 assay (Apo-ONE); type: cell-based; conditions: 10 µM, presence of TNFα (10 ng/ml), 24 h, MDA-MB-231, positive control
# Description: MDA-MB-231 cells were obtained from the Korean Cell Line Bank. Cells were cultured in Roswell Park Memorial Institute (RPMI) 1640 medium containing 10% foetal bovine serum and 1% penicillin/streptomycin at 37 °C with 5% CO2 under humidified atmosphere.
# The assay was performed using Apo-ONE® Homogeneous Caspase-3/7 Assay kits (Catalogue No. G7790, Promega, Madison, WI). MDA-MB-231 cells in a concentration of 5000 cells/100 µl were seeded in each well of a black 96-well plate and starved after adhering to the plate. The cells were incubated for 24 h, and the serum-starved cells were treated with either Takinib or 13h in the presence or absence of TNFα (10 ng/ml). All samples and the control contained DMSO in a final concentration of 0.5%. After another 24 h of incubation, 100 µL of Apo-ONE® caspase-3/7 reagent was added to each well, and the cells were incubated at room temperature in darkness for 2 h. Fluorescence was then measured at 530 nm with excitation at 485 nm using a FlexStation 3 Multi-Mode microplate reader (Molecular Devices). Statistical analyses of the data included a one-way ANOVA, followed by Tukey’s multiple comparison test.
Compound,"TAK1 potency, SAR result in words [1]",further results
"CN1CCN(c2ccc(-c3nc4c(N5CC[C@@H](NC(=O)/C(C#N)=C/c6ccccc6)C5)c(Cl)cnc4[nH]3)cc2)CC1 [Compound 13a, (R,E)-N-(1-(6-chloro-2-(4-(4-methylpiperazin-1-yl)phenyl)-3H-imidazo[4,5-b]pyridin-7-yl)pyrrolidin-3-yl)-2-cyano-3-phenylacrylamide]",,"IC50 fold lower than the IC50 of 14 ([1]; TAK1, compared with 14): ~2.5 fold; IC50 [1]: 385 nM"
"CCCn1/c(=N/C(=O)c2cccc(C(N)=O)c2)[nH]c2ccccc21 [Takinib, reference compound]",,caspase-3/7 activity [2]: significant caspase activation
(R)-N-(1–(5-chloro-2-((4–(4-methylpiperazin-1-yl)phenyl)amino)pyrimidin-4-yl)pyrrolidin-3-yl)acrylamide [Compound 14],,"IC50 relative to that of the pyrimidine (6) ([1]; TAK1, compared with 6): approximately twice; IC50 [1]: 961 nM"
"Cc1csc(/C=C(\C#N)C(=O)N[C@@H]2CCN(c3c(Cl)cnc4[nH]c(-c5ccc(N6CCN(C)CC6)cc5)nc34)C2)n1 [Compound 13b, (R,E)-N-(1-(6-chloro-2-(4-(4-methylpiperazin-1-yl)phenyl)-3H-imidazo[4,5-b]pyridin-7-yl)pyrrolidin-3-yl)-2-cyano-3-(4-methylthiazol-2-yl)acrylamide]",highest potency,
"COc1ccc(/C=C(\C#N)C(=O)N[C@@H]2CCN(c3c(Cl)cnc4[nH]c(-c5ccc(N6CCN(C)CC6)cc5)nc34)C2)nc1 [Compound 13k, (R,E)-N-(1–(6-chloro-2–(4-(4-methylpiperazin-1-yl)phenyl)-3H-imidazo[4,5-b]pyridin-7-yl)pyrrolidin-3-yl)-2-cyano-3-(5-methoxypyridin-2-yl)acrylamide]",increased,
"Cc1ccc(/C=C(\C#N)C(=O)N[C@@H]2CCN(c3c(Cl)cnc4[nH]c(-c5ccc(N6CCN(C)CC6)cc5)nc34)C2)nc1 [Compound 13j, (R,E)-N-(1–(6-chloro-2–(4-(4-methylpiperazin-1-yl)phenyl)-3H-imidazo[4,5-b]pyridin-7-yl)pyrrolidin-3-yl)-2-cyano-3-(5-methylpyridin-2-yl)acrylamide]",excellent,
C=CC(=O)N[C@@H]1CCN(c2nc(Nc3ccc(N4CCN(C)CC4)cc3)ncc2Cl)C1 [Compound 6],,IC50 [1]: 413 nM

# Second part, led by results:
"TAK1 potency, SAR result in words [1]",Compound,further results
increased,"CN1CCN(c2ccc(-c3nc4c(N5CC[C@@H](NC(=O)/C(C#N)=C/c6cccc(Cl)n6)C5)c(Cl)cnc4[nH]3)cc2)CC1 [Compound 13g, (R,E)-N-(1–(6-chloro-2–(4–(4-methylpiperazin-1-yl)phenyl)-3H-imidazo[4,5-b]pyridin-7-yl)pyrrolidin-3-yl)-3-(6-chloropyridin-2-yl)-2-cyanoacrylamide]",
maintained or improved potency,"CN1CCN(c2ccc(-c3nc4c(N5CC[C@@H](NC(=O)/C(C#N)=C/c6cccc(F)n6)C5)c(Cl)cnc4[nH]3)cc2)CC1 [Compound 13f, (R,E)-N-(1-(6-chloro-2-(4-(4-methylpiperazin-1-yl)phenyl)-3H-imidazo[4,5-b]pyridin-7-yl)pyrrolidin-3-yl)-2-cyano-3–(6-fluoropyridin-2-yl)acrylamide]",
increased,"CN1CCN(c2ccc(-c3nc4c(N5CC[C@@H](NC(=O)/C(C#N)=C/c6cccc(C7CC7)n6)C5)c(Cl)cnc4[nH]3)cc2)CC1 [Compound 13i, (R,E)-N-(1–(6-chloro-2–(4-(4-methylpiperazin-1-yl)phenyl)-3H-imidazo[4,5-b]pyridin-7-yl)pyrrolidin-3-yl)-2-cyano-3-(6-cyclopropylpyridin-2-yl)acrylamide]",
excellent,"Cc1ccnc(/C=C(\C#N)C(=O)N[C@@H]2CCN(c3c(Cl)cnc4[nH]c(-c5ccc(N6CCN(C)CC6)cc5)nc34)C2)c1 [Compound 13l, (R,E)-N-(1-(6-chloro-2-(4-(4-methylpiperazin-1-yl)phenyl)-3H-imidazo[4,5-b]pyridin-7-yl)pyrrolidin-3-yl)-2-cyano-3–(4-methylpyridin-2-yl)acrylamide]",
